Here are results for 12 compounds from ChEMBL document CHEMBL1201862, “PubChem BioAssay data set” (2004).

Among the test systems are 786-0; A498; A549; ACHN; COLO 205; DU-145; EKVX; HL-60; HOP-92; Hs-578T; M14; MDA-MB-231; NCI-H226; OVCAR-4; RXF 393; SF-268; SNB-75; SW-620; T47D; SNB-78.
Holding throughout (test): NCI tumour cell line growth inhibition, 48 h

Molecules are shown by their SMILES.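 Interpolation was linear, between the two tested concentrations surrounding the appropriate level; five concentrations were tested over 48 hours in 96-well plates. GI50: concentration for 50% inhibition of growth.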 The source made the active and inactive calls. Rule as the data show it: active = GI50 up to about 1.1 µM and inactive = higher.

Take `Nc1nc(O)c2[nH]cnc2[n+]1[O-]`: the GI50 in the test with 786-0, in the test with A498, with A549, with ACHN, in the test on COLO 205 and in the test with DU-145 was > 100 µM (inactive) throughout. The GI50 in the test on EKVX, in the test with HL-60, with HOP-92, in the test on Hs-578T, in the test with M14 and in the test with MDA-MB-231 was > 100 µM (inactive) each time. Besides, the GI50 in the test with NCI-H226, with OVCAR-4, in the test with RXF 393, in the test on SF-268, in the test with SNB-75 and in the test on SW-620 was > 100 µM (inactive) each time. Further, in the test on T47D, the GI50 was > 100 µM (inactive).
As to `Nc1nc(Cl)cc(NCCCCCCCCNc2cc(Cl)nc(N)n2)n1`, the GI50 in the test with 786-0 was 25.8 µM (inactive); in the test on A549, 3.56 µM (inactive); with ACHN, 0.221 µM (active); with COLO 205, 26.4 µM (inactive); in the test on EKVX, > 100 µM (inactive); in the test on HL-60, 1.46 µM (inactive). Besides, the GI50 in the test with HOP-92 was 7.76 µM (inactive); in the test with M14, 19.2 µM (inactive); in the test on NCI-H226 it was 6.24 µM (inactive); with OVCAR-4 it was 4.29 µM (inactive); in the test with RXF 393, 12.2 µM (inactive); with SF-268 it was 36.8 µM (inactive). The figures for the GI50 with SNB-75, in the test with SNB-78 and in the test on SW-620 were 25.9 µM (inactive), 71.6 µM (inactive) and 36.8 µM (inactive), respectively.
On to `CC(CCCOC(c1ccccc1)(c1ccccc1)c1ccccc1)OC(=O)Nc1ccccc1` (centres undefined), for which the GI50 in the test on 786-0 is 16.1 µM (inactive); with A549, 11.1 µM (inactive); in the test on ACHN it was 13.6 µM (inactive); in the test on COLO 205, 18.2 µM (inactive); in the test with HL-60, 11.6 µM (inactive); in the test on HOP-92, 10 µM (inactive). The GI50 with M14 was 14.2 µM (inactive); in the test on NCI-H226 it was 12.6 µM (inactive); in the test with OVCAR-4, 12.4 µM (inactive); in the test with RXF 393 it was 12.8 µM (inactive); in the test with SF-268 it was 12.8 µM (inactive); in the test on SNB-75, 14.5 µM (inactive). The GI50 with SNB-78 is 16.4 µM (inactive); in the test with SW-620 it was 14.4 µM (inactive).
Take `O=C(c1ccsc1)c1cc2c(s1)C(=O)c1ccsc1C2=O`: the GI50 in the test on 786-0 is 0.189 µM (active); in the test on A498, 1.58 µM (inactive); in the test on A549, 0.612 µM (active); with ACHN it was 0.0959 µM (active); with COLO 205, 1.51 µM (inactive); in the test on DU-145, 0.159 µM (active). Besides, the GI50 in the test with EKVX is 0.2 µM (active); with HL-60, 1.48 µM (inactive); in the test on HOP-92 it was 0.34 µM (active); with Hs-578T, 0.209 µM (active); in the test on M14, 0.116 µM (active); in the test on MDA-MB-231 it was 0.0755 µM (active). Moreover, the GI50 in the test with NCI-H226 was 0.552 µM (active); with OVCAR-4 it was 0.177 µM (active); with RXF 393, 0.178 µM (active); with SF-268, 0.165 µM (active); in the test on SNB-75, 0.171 µM (active); in the test with SW-620 it was 0.17 µM (active). In addition, the GI50 with T47D was 0.235 µM (active).
On to `O=C1/C(=C/C=C/c2ccccc2)CCC1CNc1ccccc1` (centres undefined), for which the GI50 in the test on 786-0 is 16.6 µM (inactive); with A498, > 27 µM (inactive); with A549 it was > 66.2 µM (inactive); in the test with ACHN, 76.9 µM (inactive); in the test with COLO 205, 28.9 µM (inactive); in the test on DU-145, > 93.3 µM (inactive). Besides, the GI50 is > 100 µM (inactive) with EKVX; 4.07 µM (inactive) in the test on HL-60; 47.8 µM (inactive) with HOP-92; > 67 µM (inactive) with Hs-578T; 30.2 µM (inactive) with M14; 22 µM (inactive) in the test on MDA-MB-231. For the same compound, the GI50 is > 100 µM (inactive) with NCI-H226; 99.3 µM (inactive) in the test on OVCAR-4; 19.8 µM (inactive) in the test on RXF 393; 36.7 µM (inactive) with SF-268; > 100 µM (inactive) with SNB-75; 18.4 µM (inactive) in the test on SW-620. Besides, in the test on T47D, the GI50 is 26.2 µM (inactive).
`Sc1ncc(-c2cncc(-c3cnc(S)nc3)n2)cn1`: the GI50 is > 100 µM (inactive) with 786-0; 52.2 µM (inactive) in the test with A498; > 100 µM (inactive) with A549; > 100 µM (inactive) with ACHN; > 100 µM (inactive) with COLO 205; > 100 µM (inactive) in the test on DU-145. For the same compound, the GI50 in the test on EKVX, in the test on HL-60, with HOP-92, in the test with Hs-578T, in the test with M14 and in the test with MDA-MB-231 was > 100 µM (inactive) throughout. The GI50 with NCI-H226, in the test on OVCAR-4, in the test on RXF 393, in the test on SF-268, with SNB-75 and in the test with SW-620 was > 100 µM (inactive) throughout. Further, the GI50 with T47D was > 100 µM (inactive).
For `N#CC1CC2(C1)OCCS2` (centres undefined), the GI50 in the test with 786-0, with A498, in the test with A549, in the test on ACHN, with COLO 205 and in the test with EKVX was > 100 µM (inactive) throughout. For the same compound, the GI50 in the test with HL-60, in the test with M14, in the test with NCI-H226, with OVCAR-4, in the test with RXF 393 and with SF-268 was > 100 µM (inactive) each time. For the same compound, the GI50 in the test on SNB-75 was 32.3 µM (inactive); with SNB-78 it was > 100 µM (inactive); with SW-620, > 100 µM (inactive).
On to `C/C(CN1C(=O)c2ccccc2C1=O)=N\NS(=O)(=O)c1cccc([N+](=O)[O-])c1`, for which the GI50 in the test on 786-0, with A498, in the test on A549, in the test on ACHN, with COLO 205 and in the test on EKVX was > 100 µM (inactive) throughout. Also, the GI50 in the test on HL-60, in the test with M14, with NCI-H226, in the test on OVCAR-4, in the test on RXF 393 and in the test with SF-268 was > 100 µM (inactive) throughout. Besides, the GI50 in the test with SNB-75, in the test with SNB-78 and in the test with SW-620 was > 100 µM (inactive) each time.
With `CCC1(C(=O)OC)CCc2c(OC)ccc(OC)c2C1=O` (centres undefined), the GI50 in the test with 786-0, in the test with A498, with A549, in the test on ACHN, with COLO 205 and in the test on EKVX was > 100 µM (inactive) in each case. Besides, the GI50 in the test with HL-60, in the test on M14, in the test on OVCAR-4, in the test with SF-268, in the test on SNB-78 and in the test with SW-620 was > 100 µM (inactive) each time.
`Cc1nc(Nc2ccc([N+](=O)[O-])cc2)sc1C(/C=C/c1ccc(N(C)C)cc1)=N/NC(=O)c1ccccc1`: the GI50 is 85.9 µM (inactive) in the test with 786-0; 46.5 µM (inactive) with A549; 39.6 µM (inactive) in the test on ACHN; > 100 µM (inactive) with COLO 205; 41.2 µM (inactive) in the test on EKVX; 22.6 µM (inactive) in the test on HL-60. The GI50 is 6.82 µM (inactive) in the test on HOP-92; 48.8 µM (inactive) in the test with M14; 63 µM (inactive) in the test on NCI-H226; 76 µM (inactive) in the test with OVCAR-4; 58.6 µM (inactive) in the test with RXF 393; 43 µM (inactive) in the test with SF-268. For the same compound, the GI50 is > 100 µM (inactive) with SNB-75, 41.6 µM (inactive) in the test on SNB-78 and 45.6 µM (inactive) in the test on SW-620.
As to `CCC12CC[C@H](C#N)N3CCc4c(n(c5ccccc45)C(=O)C1)C32` (some centres undefined), the GI50 is 16.9 µM (inactive) in the test on 786-0; 13.3 µM (inactive) with A498; 15.9 µM (inactive) in the test with A549; > 10 µM (inactive) in the test with ACHN; 19.1 µM (inactive) in the test with COLO 205; 23 µM (inactive) in the test on EKVX. Besides, the GI50 is 16.4 µM (inactive) in the test with M14; 12.1 µM (inactive) in the test on OVCAR-4; 13.3 µM (inactive) with RXF 393; 17.9 µM (inactive) in the test with SF-268; 5.56 µM (inactive) in the test on SNB-75; 19.5 µM (inactive) in the test on SNB-78. In addition, the GI50 in the test with SW-620 was 14.9 µM (inactive).
`O=C(CBr)NCCc1c[nH]c2ccccc12`: the GI50 was 1.4 µM (inactive) with 786-0; 19 µM (inactive) in the test on A498; 2.14 µM (inactive) in the test with A549; 1.73 µM (inactive) with ACHN; 1.65 µM (inactive) in the test with COLO 205; 2.07 µM (inactive) in the test with DU-145. Also, the GI50 with EKVX was 1.79 µM (inactive); in the test with HL-60, 1.7 µM (inactive); in the test on HOP-92 it was 2.29 µM (inactive); in the test with Hs-578T, 5.14 µM (inactive); in the test with M14, 1.66 µM (inactive); with MDA-MB-231, 2.23 µM (inactive). The GI50 in the test on NCI-H226 was 0.655 µM (active); in the test with OVCAR-4, 1.79 µM (inactive); in the test on RXF 393 it was 1.09 µM (active); in the test with SF-268, 2.16 µM (inactive); in the test with SNB-75, 1.65 µM (inactive); in the test on SW-620, 2.03 µM (inactive). Further, in the test on T47D, the GI50 was 1.74 µM (inactive).
